Earlier results in patent US20060217788A1, “Method of using laser induced injury to activate topical prodrugs” (priority 2004, published 2006).
Where no end group is shown, it is not given here. The star is where a group is joined. Palmitoyl = CCCCCCCCCCCCCCCC(=O)*

Tests used:
[1] = test system: wrinkle improvement and photo-aging scores; conditions: 3 ppm, clinical studies
[2] = test system: MMP-1, -2, -3, -7, -9 and -13
fibroblast cultures = conditions: in vitro

N-Palmitoyl-Lys-Thr-Thr-Lys-Ser (Palmitoyl-KTTKS) [Pal-KTTKS, pentapeptide conjugated to a 16-carbon fatty acid moiety, from Sederma]
irritation or changes in barrier function [1]: without significant irritation or changes in barrier function
wrinkle improvement and reduction of photo-aging scores [1]: comparable to retinoids

PLGLAARK [fairly broad spectrum peptide substrate cleavable by MMPs]
cleavage by MMPs [2]: cleavable

KTTKS [pentapeptide, subfragment of the carboxyl-terminal propeptide of type I collagen]
production of matrix components including collagen I, III and fibronectin (fibroblast cultures): increased production
